# Where a name gives a salt, the structure may show the parent alone.
# Target: T1, MPO (purified from human polynuclear leukocytes) (Homo sapiens, UniProt P05164)
# T1 construct: purified from human polynuclear leukocytes; purchased Calbiochem/EMD Biosciences; host or cells: human polynuclear leukocytes (natural source)
# Test: MPO Amplex Red Activity Assay
# Type: biochemical
# Conditions: Table 1, 2 μM H2O2, pH 7.4
# Outline: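 Human leukocyte MPO […] oxidises 30 μM Amplex Red with 2 μM H2O2 in 50 mM NaPi pH 7.4, 150 mM NaCl, 1 mM DTPA, 2% DMSO. Resorufin fluorescence (ex 530/em 580 nm) read every 20 s, minus catalase background. kobs from the first 600 s, corrected for auto-inactivation, fit versus [I] for kinact/KI.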
# T1 sequence (P05164 279-745 limits assumed): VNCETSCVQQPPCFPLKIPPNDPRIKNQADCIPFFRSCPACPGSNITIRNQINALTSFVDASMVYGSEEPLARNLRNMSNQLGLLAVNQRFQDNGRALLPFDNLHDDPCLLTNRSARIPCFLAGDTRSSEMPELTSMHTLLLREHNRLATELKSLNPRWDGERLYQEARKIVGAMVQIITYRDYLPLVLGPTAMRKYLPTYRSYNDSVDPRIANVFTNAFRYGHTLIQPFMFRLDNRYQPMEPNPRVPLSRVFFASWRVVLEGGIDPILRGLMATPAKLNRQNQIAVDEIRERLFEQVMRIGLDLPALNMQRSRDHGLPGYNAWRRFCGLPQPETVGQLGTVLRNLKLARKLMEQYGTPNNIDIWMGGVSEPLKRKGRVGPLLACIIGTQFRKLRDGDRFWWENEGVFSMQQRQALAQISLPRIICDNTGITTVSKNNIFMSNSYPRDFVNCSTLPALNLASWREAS
# T1 sequence (P05164 165-273 limits assumed): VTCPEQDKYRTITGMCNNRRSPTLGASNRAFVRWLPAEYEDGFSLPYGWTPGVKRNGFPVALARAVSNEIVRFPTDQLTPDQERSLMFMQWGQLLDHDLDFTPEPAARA
row,MPO kinact/Ki,Compound
1,7160 1/s per M,"COc1ccc(-c2cc(=O)[nH]c(=S)n2CCCO)c(OC)c1 [Example 181, 6-(2,4-dimethoxyphenyl)-1-(3-hydroxypropyl)-2-thioxo-2,3-dihydropyrimidin-4(1H)-one]"
2,1740 1/s per M,"COc1ccc(-c2cc(=O)[nH]c(=S)n2Cc2ccccn2)c(OC)c1 [Example 230, 6-(2,4-dimethoxyphenyl)-1-(pyridin-2-ylmethyl)-2-thioxo-2,3-dihydropyrimidin-4(1H)-one]"
3,16100 1/s per M,"COc1cc2ccccc2cc1-c1cc(=O)[nH]c(=S)n1CCO [Example 100, 1-(2-hydroxyethyl)-6-(3-methoxy-2-naphthyl)-2-thioxo-2,3-dihydropyrimidin-4(1H)-one]"
4,12500 1/s per M,"COc1ccc(OC)c(-c2cc(=O)[nH]c(=S)n2CC(N)=O)c1 [Example 2, 2-(6-(2,5-Dimethoxyphenyl)-4-oxo-2-thioxo-3,4-dihydropyrimidin-1(2H)-yl)acetamide]"
5,952 1/s per M,"COc1ccc(-c2cc(=O)[nH]c(=S)n2CCNCC(=O)O)c(OC)c1 [Example 243, N-{2-[6-(2,4-dimethoxyphenyl)-4-oxo-2-thioxo-3,4-dihydropyrimidin-1(2H)-yl]ethyl}glycine hydrochloride]"
6,1060 1/s per M,"COCCn1c(-c2cccn2C)cc(=O)[nH]c1=S [Example 281, 1-(2-methoxyethyl)-6-(1-methyl-1H-pyrrol-2-yl)-2-thioxo-2,3-dihydropyrimidin-4(1H)-one]"
7,2210 1/s per M,"COc1ccc(-c2cc(=O)[nH]c(=S)n2CCC(N)=O)c(OC)c1 [Example 189, 3-[6-(2,4-dimethoxyphenyl)-4-oxo-2-thioxo-3,4-dihydropyrimidin-1(2H)-yl]propanamide]"
8,7680 1/s per M,"NC(=O)Cn1c(-c2cccc3ccoc23)cc(=O)[nH]c1=S [Example 31, 2-[6-(1-benzofuran-7-yl)-4-oxo-2-thioxo-3,4-dihydropyrimidin-1(2H)-yl]acetamide]"
9,9310 1/s per M,"COc1ccc(Cl)cc1-c1cc(=O)[nH]c(=S)n1C[C@H]1CCCN1 [Example 122, 6-(5-chloro-2-methoxyphenyl)-1-[(2R)-pyrrolidin-2-ylmethyl]-2-thioxo-2,3-dihydropyrimidin-4(1H)-one hydrochloride]"

# Same assay, conditions: Table 1A, 2 μM H2O2, pH 7.4
row,MPO kinact/Ki,Compound
1,2910 1/s per M,"O=c1cc(-c2ccc3c(c2)OCCO3)n(CCO)c(=S)[nH]1 [Example 356, 6-(2,3-dihydro-1,4-benzodioxin-6-yl)-1-(2-hydroxyethyl)-2-thioxo-2,3-dihydropyrimidin-4(1H)-one]"
2,6620 1/s per M,"COc1ccc(-c2cc(=O)[nH]c(=S)n2CC(=O)NCC(C)(C)N)c(OC)c1 [Example 429, N-(2-amino-2-methylpropyl)-2-[6-(2,4-dimethoxyphenyl)-4-oxo-2-thioxo-3,4-dihydropyrimidin-1(2H)-yl]acetamide]"
3,4020 1/s per M,"COc1ccc(-c2cc(=O)[nH]c(=S)n2CC(=O)N[C@@H](C)CN)c(OC)c1 [Example 394, N-[(2S)-1-aminopropan-2-yl]-2-[6-(2,4-dimethoxyphenyl)-4-oxo-2-thioxo-3,4-dihydropyrimidin-1(2H)-yl]acetamide]"
4,4910 1/s per M,"COc1ccc(-c2cc(=O)[nH]c(=S)n2CC(=O)N2CC[C@@H](N)C2)c(OC)c1 [Example 389, 1-{2-[(3R)-3-aminopyrrolidin-1-yl]-2-oxoethyl}-6-(2,4-dimethoxyphenyl)-2-thioxo-2,3-dihydropyrimidin-4(1H)-one]"
5,2650 1/s per M,"CNCCN(C)C(=O)Cn1c(-c2ccc(OC)cc2OC)cc(=O)[nH]c1=S [Example 400, 2-[6-(2,4-dimethoxyphenyl)-4-oxo-2-thioxo-3,4-dihydropyrimidin-1(2H)-yl]-N-methyl-N-[2-(methylamino)ethyl]acetamide]"
6,6490 1/s per M,"N=C(N)NCCn1c(-c2cc(Cl)ccc2OCCO)cc(=O)[nH]c1=S [Example 448, 1-(2-{6-[5-chloro-2-(2-hydroxyethoxy)phenyl]-4-oxo-2-thioxo-3,4-dihydropyrimidin-1(2H)-yl}ethyl)guanidine]"

# — patent US9399626B2, “2-thiopyrimidinones” (Pfizer Inc., priority 2011, dated 2016)
